We go through 22 compounds from US6962909B2, “Treatment of neovascularization disorders with squalimine” (Genaera Corporation, priority 1995, dated 2005).

In series [1] the test system is S. aureus. Nature of the series: Antibiotic activity, MIC. To be noted: Staphylococcus aureus. Type of series: cell-based.
Series [2] deals with E. coli. Nature of the series: Antibiotic activity, MIC. Type of series: cell-based. Conditions: Escherichia coli.
In series [3] the test system is P. aerug. Description: Antibiotic activity, MIC.
In series [4] the test system is C. albicans. Description: Antibiotic activity, MIC. To be noted: Candida albicans.
The target of series [5] is NHE1 (Homo sapiens, UniProt P19634). Conditions: cited from earlier work.
NHE1, sequence (P19634 whole entry, species assumed): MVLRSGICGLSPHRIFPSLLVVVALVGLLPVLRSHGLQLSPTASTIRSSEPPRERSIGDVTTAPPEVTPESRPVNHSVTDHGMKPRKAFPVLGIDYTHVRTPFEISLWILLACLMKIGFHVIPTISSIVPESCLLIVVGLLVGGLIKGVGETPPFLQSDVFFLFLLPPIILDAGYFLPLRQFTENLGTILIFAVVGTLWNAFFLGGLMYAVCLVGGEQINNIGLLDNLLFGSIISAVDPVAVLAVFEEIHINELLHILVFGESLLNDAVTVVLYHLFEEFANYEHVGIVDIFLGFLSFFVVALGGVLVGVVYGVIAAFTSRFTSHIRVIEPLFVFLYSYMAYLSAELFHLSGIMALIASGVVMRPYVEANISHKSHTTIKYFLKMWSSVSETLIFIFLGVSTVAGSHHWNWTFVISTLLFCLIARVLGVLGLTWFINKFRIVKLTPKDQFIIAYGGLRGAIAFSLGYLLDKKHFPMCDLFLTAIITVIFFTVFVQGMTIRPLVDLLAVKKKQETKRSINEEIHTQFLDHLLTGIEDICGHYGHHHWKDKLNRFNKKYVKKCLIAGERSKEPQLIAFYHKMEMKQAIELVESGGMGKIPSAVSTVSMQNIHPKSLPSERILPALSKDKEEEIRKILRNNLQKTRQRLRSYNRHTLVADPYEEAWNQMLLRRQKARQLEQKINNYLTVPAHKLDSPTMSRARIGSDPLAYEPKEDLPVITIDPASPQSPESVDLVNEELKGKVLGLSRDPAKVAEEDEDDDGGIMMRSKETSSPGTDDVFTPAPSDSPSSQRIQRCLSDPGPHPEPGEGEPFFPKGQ
Series [6] has as its target NHE2. To be noted: cited from earlier work.
In series [7] the target is NHE3 (Rattus norvegicus, UniProt P26433). To be noted: cited from earlier work.
NHE3, sequence (P26433 29-831): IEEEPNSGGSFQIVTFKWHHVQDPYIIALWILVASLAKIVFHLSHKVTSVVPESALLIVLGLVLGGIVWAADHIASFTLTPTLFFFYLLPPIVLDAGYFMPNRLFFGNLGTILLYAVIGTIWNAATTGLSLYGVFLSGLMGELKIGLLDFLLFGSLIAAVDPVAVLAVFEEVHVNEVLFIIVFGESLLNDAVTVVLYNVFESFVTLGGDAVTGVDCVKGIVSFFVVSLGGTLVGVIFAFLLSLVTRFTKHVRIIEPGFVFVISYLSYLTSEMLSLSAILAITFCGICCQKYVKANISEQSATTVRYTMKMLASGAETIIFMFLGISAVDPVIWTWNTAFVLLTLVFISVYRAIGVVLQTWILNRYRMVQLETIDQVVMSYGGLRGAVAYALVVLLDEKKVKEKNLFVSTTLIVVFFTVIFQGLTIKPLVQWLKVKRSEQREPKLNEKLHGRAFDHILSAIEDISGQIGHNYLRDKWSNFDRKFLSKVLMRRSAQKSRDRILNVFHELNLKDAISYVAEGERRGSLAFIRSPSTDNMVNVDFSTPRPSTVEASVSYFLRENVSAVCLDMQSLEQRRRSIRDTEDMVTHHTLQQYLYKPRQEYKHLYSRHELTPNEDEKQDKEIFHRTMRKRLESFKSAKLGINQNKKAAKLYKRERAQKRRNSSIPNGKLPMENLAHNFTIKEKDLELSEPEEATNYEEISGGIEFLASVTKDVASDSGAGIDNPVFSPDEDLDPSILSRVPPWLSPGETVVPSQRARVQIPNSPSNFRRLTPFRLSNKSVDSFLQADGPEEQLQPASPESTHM
The test system of series [8] is L1210 lymphoblastic leukemia cells. Nature of the series: Mouse model of L1210 leukemia.
Experimental: C57B mice were inoculated with L1210 lymphoblastic leukemia cells at an inoculum that causes leukemia in 100% of animals. Mice received compound 1436 at 1, 5, 10 mg/kg every 3 days intraperitoneally.
Of particular interest is the hematological profile determined during the course of treatment. Animals were treated with cisplatin and compound 1436.
In series [9] the test system is vitelline capillaries of 3- to 5-day chick embryo. Nature of the series: Chick embryo vitelline capillary regression assay. It is filed as in vivo. Also on record: key to Vascular reactivity (capillary regression): + = Vascular reactivity; 0 = No vascular reactivity; +/− = Equivocal reactivity. Here is the method: Using the chick embryo vitelline capillaries assay, compounds were tested for their ability to induce capillary regression. Each compound was applied in 0.1 ml of 15% Ficol 400 and PBS onto the embryo, and vascular regression was assessed after 60 minutes.
The 3-day chick embryo consists of an embryonic disc from which numerous vessels emerge and return, forming a “figure 8”-shaped structure—the embryo in the center with vascular loops extending outward over both poles. […] Following a lag period of around 15 minutes, the constriction of continuity between capillary and secondary vessels, generally on the “venous” side, was observed. Continued pulsatile blood flow progressed, resulting in a “swelling” of the blind tube, followed by a pinching off of the remaining connection and formation of an enclosed vascular sac resembling a “blood island.” This process progressed until only the largest vessels remained intact.

The subject of series [10] is Stage 59-60 Xenopus tadpoles. Nature of the series: Xenopus tadpole assay. It is filed as in vivo, Xenopus laevis. Conditions: 10 μg/ml in water, about 1 hour. The source says: A newly developed assay employing tadpoles, preferably Xenopus laevis Stages 59-60, were employed to study the effect of a compound by monitoring capillary occlusion in the tadpole's tail. […] The compounds of the invention affect the shape, viability and integrity of the embryonic tissues while not affecting the adult tissues, providing a powerful, highly specific screen. For example, substances that destroy all of the animal's epithelium, both adult and embryonic, could be regarded as toxic.
In this assay, tadpoles are introduced into Petri dishes containing a solution of the test compound in distilled water, preferably about 100 ml. The preferred concentration of the test compound is from about 1 μg/ml to about 10 μg/ml. The volume of liquid is sufficient for the animal to swim freely and drink from the solution. Thus, the effect observed results from oral absorption and subsequent systemic distribution of the agent. If the volume of liquid is not sufficient to permit oral intake, the effects that are observed would result from absorption through the surface epithelium. Thus, this simple assay can identify if an compound has characteristics of oral availability.
After an amount of time, typically about 60 minutes, the occlusion of blood flow through capillaries in the tadpole's tail are observed under an inverted microscope at a magnification of roughly 100×.
The tadpole assay described above provides an advantageous way to determine the pharmacological targets of each steroid when introduced into a mammal, and to determine pharmacological categories into which synthetic compounds belong. In the assay, each of the steroids was dissolved in 100 ml of distilled water at a concentration of 10 μg/ml. Stage 59-60 Xenopus tadpoles were introduced and evaluated by light microscopy and gross observation 1 hour later.

Series [11] has as its system PHA-stimulated human lymphocytes. Nature of the series: Inhibition of mitogen-stimulated growth of human T-cells. Type of series: cell-based. Conditions: 72 hours. The method, then: Human heparinized blood, freshly collected, was introduced into tissue culture flasks containing 10 μg/ml phytohaemagglutinin (PHA) in RPMI medium with 10% FCS. Various purified steroids were introduced subsequently at concentrations of 1, 5, and 10 μg/ml. Cultures were incubated for 72 hours, after which time colcemid was added to 1 μg/ml. Cultures were maintained for an additional 2 hours, and cells collected. Mitotic figures were estimated using standard cytochemical techniques, following Giemsa staining.

For series [12], the system named is human microvascular cells. Nature of the series: Endothelial cord formation assay. It is filed as cell-based. The source says:
Endothelial cells have the capacity in vitro to form tubular aggregates resembling capillaries in various early stages of formation. This conversion occurs under relatively specific conditions, in which essential growth factors along with an effective substratum are provided. It has been shown that both the interaction of growth factors with the endothelial cell and its attachment to a substratum activate the NHE. The activation of this exchanger is believed to be required for subsequent morphologic transformation of the endothelial cell into a multicellular tubular structure.
To assess the effect of compounds on the cord-like structures formed by human microvascular cells when plated in the presence of VGEF (Vascular Endothelial Growth Factor) and basic fibroblast growth factor on a collagen matrix, a standard cord formation assay was used.

Series [13] in a line: MTT (Table II). It is filed as cell-based. The source says: As set forth in Table II, which follows Table I, the activities of natural and synthetic aminosterols in the different assays vary. In light of the foregoing, it is now possible to screen for steroids with or without squalamine-like pharmacological activity.
Setting [14] is: mice with 5 × 10^5 L1210 cells ip, cisplatin 8 mg/kg ip, compound 1436 10 mg/kg ip q4d.

The term MIC denotes the least concentration at which growth counts as inhibited. One may read the pKi as −log10 of the Ki, conventionally taken in molar units.

pKi: −log10 of the molar value. Values after ≈ are worked out from the molar mass of the structure shown. Bounds are passed on as bounds.

As to `CC(C)CCCC(C)[C@H]1CCC2C3CC[C@H]4C[C@H](NCCCCN)CC[C@]4(C)C3CC[C@@]21C` (stereo partly shown), the MIC in [1] was 4 µg/mL (≈ 8.72 µM); in series [2] it was greater than 256 µg/mL; in series [3] it was greater than 256 µg/mL; in [4], 64 µg/mL (≈ 139 µM).
On to `CC(C)CCCC(C)[C@H]1CCC2C3CC[C@H]4C[C@@H](NCCCCN)CC[C@]4(C)C3CC[C@@]21C` (stereo partly shown), for which the MIC in series [1] is 16 µg/mL (≈ 34.9 µM); in series [2] it was greater than 256 µg/mL; in series [3], greater than 256 µg/mL; in series [4], greater than 256 µg/mL.
Take `CC(C)C(O)CCC(C)[C@H]1CCC2C3C(CC[C@@]21C)[C@@]1(C)CC[C@H](NCCCNCCCCN)C[C@@H]1C[C@H]3O` (stereo partly shown): the MIC in series [1] is 4 to 16 µg/mL (≈ 7.3 to 29.2 µM); in series [2], 32 µg/mL (≈ 58.4 µM); in [3] it was 128 µg/mL (≈ 234 µM); in [4], 64 µg/mL (≈ 117 µM).
On the same counts, the results for `CC(CCC(=O)O)[C@H]1CCC2C3C(CC[C@@]21C)[C@@]1(C)CC[C@@H](NCCCNCCCCN)C[C@@H]1C[C@H]3O` (stereo partly shown) are 16 µg/mL (≈ 30.8 µM), 64 µg/mL (≈ 123 µM), 32 µg/mL (≈ 61.6 µM) and 32 µg/mL (≈ 61.6 µM).
Regarding `CC(C)CCCC(C)[C@H]1CCC2C3CC[C@H]4C[C@H](NCCCN5CCCCN=C5N)CC[C@]4(C)C3CC[C@@]21C` (stereo partly shown), the MIC in series [1] is 2 µg/mL (≈ 3.7 µM); in [2], greater than 256 µg/mL; in series [3] it was greater than 256 µg/mL; in series [4], 32 µg/mL (≈ 59.2 µM).
Consider `COC(=O)CCC(C)[C@H]1CCC2C3C(CC[C@@]21C)[C@@]1(C)CC[C@@H](NCCCNCCCCN)C[C@@H]1C[C@H]3O` (stereo partly shown), for which the MIC was found to be 4 µg/mL (≈ 7.49 µM) in series [1], 64 µg/mL (≈ 120 µM) in series [2], 64 µg/mL (≈ 120 µM) in series [3] and 32 µg/mL (≈ 59.9 µM) in [4].
In the case of `COC(=O)CCC(C)[C@H]1CCC2C3C(CC[C@@]21C)[C@@]1(C)CCC(NCCCNCCCCNCCCN)C[C@@H]1C[C@H]3O` (stereo partly shown), the MIC in [1] is 4 µg/mL (≈ 6.77 µM); in series [2], 32 µg/mL (≈ 54.2 µM); in series [3], 64 µg/mL (≈ 108 µM); in [4], 64 µg/mL (≈ 108 µM).
In the case of `COC(O)CCC(C)[C@H]1CCC2C3C(CC[C@@]21C)[C@@]1(C)CC[C@H](NCCCNCCCCNCCCN)C[C@@H]1C[C@H]3O` (stereo partly shown), the MIC in series [1] is 2 to 4 µg/mL (≈ 3.37 to 6.75 µM); in series [2], 64 µg/mL (≈ 108 µM); in [3], 128 µg/mL (≈ 216 µM); in series [4] it was 16 µg/mL (≈ 27 µM).
On the same counts, the results for `C[C@@H](O)C1CCC2C3CC[C@H]4C[C@@H](NCCCNCCCCN)CC[C@]4(C)C3CC[C@@]21C` (stereo partly shown) are 4 µg/mL (≈ 8.93 µM), 32 to 64 µg/mL (≈ 71.5 to 143 µM), 256 µg/mL (≈ 572 µM) and 64 µg/mL (≈ 143 µM).
Turning to `C[C@@H](O)C1CCC2C3CC[C@H]4C[C@H](NCCCNCCCCN)CC[C@]4(C)C3CC[C@@]21C` (stereo partly shown), the MIC in series [1] came to 16 µg/mL (≈ 35.7 µM); in series [2] it was 64 µg/mL (≈ 143 µM); in series [3] it was 128 µg/mL (≈ 286 µM); in [4], 128 µg/mL (≈ 286 µM).
As to `CS(=O)(=O)c1cc(C(=O)NC(=N)N)ccc1N1CCCCC1` [(3-methylsulfonyl-4-piperidinobenzoyl) guanidine methanesulfonate], the negative logarithm of the Ki (pKi) is 6.80 in series [5], 5.30 in series [6] and 3.19 in [7].
As to `N=C(N)NC(=O)c1nc(Cl)c(N)nc1N` [Amiloride], the negative logarithm of the Ki (pKi) in series [6] is 5.52; in series [7] it was 4.00.
Take `N.N.[Cl][Pt][Cl]` [Cisplatin, reference compound]: in series [8] (by day 28), the “Hematological profile during treatment” value is “developed a profound anemia by day 28”. In series [8] (setting [14]), the “RBC, Early Time” value is 9.4 10^6/mm^3; the “RBC, Late Time” value is given as 1.5 10^6/mm^3; the “WBC, Early Time” value is reported as 8.1 10^3/mm^3; the “WBC, Late Time” value is recorded as 18.1 10^3/mm^3.
As for `CC(COS(=O)(=O)O)C(=O)CCC(C)[C@H]1CCC2C3C(CC[C@@]21C)[C@@]1(C)CC[C@H](NCCCNCCCCN)C[C@@H]1C[C@H]3O` (stereo partly shown) [Compound 1360], the “Vascular reactivity (capillary regression)” value in [9] (1 μg applied, 60 minutes) is recorded as 0. The “Effect on blood circulating through the embryonic vessels” value in [9] (within 20 minutes of application) is “exhibited a brighter red color”. The “Pharmacological response observed in tadpole” value in series [10] is “Swelling and lysis of certain erythrocytes occurred, resulting in accumulation of nuclei within certain small vessels of the tail”; in series [10] (listed as compound 1360), “extensive vasocclusion occurred within 60 minutes throughout the tail”. Besides, the “Inhibition of PHA-stimulated human lymphocytes” value in series [11] (1 μg/ml), in series [11] (5 μg/ml) and in series [11] (10 μg/ml) was 5 % control each time.
With `CCCN(C)c1nc(N)c(C(=O)N=C(N)N)nc1Cl` [MPA, methylpropylamiloride], the figures for the pKi in series [5], in series [6] and in [7] were 7.10, 5.30 and 5.00, respectively.
Turning to `CC(CC[C@@H](OS(=O)(=O)O)C(C)C)[C@H]1CCC2C3C(CC[C@@]21C)[C@@]1(C)CC[C@H](NCCCNCCCCN)C[C@@H]1C[C@H]3O` (stereo partly shown) [drawing 43], the minimal inhibitory concentration (MIC) in series [1] was 0.5 to 1 µg/mL (≈ 0.796 to 1.59 µM); in series [2], 2 to 4 µg/mL (≈ 3.18 to 6.37 µM); in series [3] it was 16 µg/mL (≈ 25.5 µM); in series [4], 8 µg/mL (≈ 12.7 µM).
As for `CC(C)CCCC(C)[C@H]1CCC2C3CC[C@H]4C[C@@H](NCCCNCCCCNCCCN)CC[C@]4(C)C3CC[C@@]21C` (stereo partly shown) [drawing 47], the MIC is 16 µg/mL (≈ 27.9 µM) in [1], 128 µg/mL (≈ 223 µM) in [2], 64 µg/mL (≈ 112 µM) in series [3] and 32 µg/mL (≈ 55.8 µM) in [4].
For `CC(COS(=O)(=O)O)C(=O)CCC(C)[C@H]1CCC2C3C(CC[C@@]21C)[C@@]1(C)CC[C@H](NCCCNCCCCN)C[C@@H]1C[C@H]3O` (stereo partly shown) [drawing 63] the same measures were 8 µg/mL (≈ 12.5 µM), 128 µg/mL (≈ 199 µM), 128 µg/mL (≈ 199 µM) and 32 µg/mL (≈ 49.8 µM).
As for `CC(C)CCCC(C)[C@H]1CCC2C3CC[C@H]4C[C@@H](NCCCNCCCCNCCCN)CC[C@]4(C)C3CC[C@@]21C` (stereo partly shown) [drawing 96], the “Cord Formation, Minimum Effective Concentration” value in series [12] worked out at 10 µg/mL. In [13], this compound came in with an MTT of 19 µg/mL.
`CC(CC[C@@H](OS(=O)(=O)O)C(C)C)[C@H]1CCC2C3C(CC[C@@]21C)[C@@]1(C)CC[C@H](NCCCNCCCCN)C[C@@H]1C[C@H]3O` (stereo partly shown) [drawing 164] showed an MTT in series [13] of 32 µg/mL.
The same measure, in the same setting: in the case of `CC(CC[C@@H](OS(=O)(=O)O)C(C)C)[C@H]1CCC2C3C(CC[C@@]21C)[C@@]1(C)CC[C@H](NCCCNCCCCNCCCN)C[C@@H]1C[C@H]3O` (stereo partly shown) [drawing 170] it was 67 µg/mL.
As to dimethylamiloride [DMA], the pKi in series [5] is 7.00; in [6] it was 6.15; in series [7], 4.96.
